Source: US11311593B2, “Root extracts from plants of the Morus genus and uses of same” (PLANT ADVANCED TECHNOLOGIES PAT, priority 2017, dated 2022)

What was measured:
fungal tyrosinase = experiment: Target Binding affinity test for tyrosinase (UPLC-MS of bound ligands)
From the text: It is based on the principle of bringing the ligands and the target into contact in the liquid phase so that the ligands that have the greatest affinity with the target bind to it, elimination of the ligands that are not fixed, separation of the complexes in order to recover the ligands which have been fixed, then quantification of the latter. In a first step of the method, the extract and the target are mixed. The compounds of the extract compete for access to the binding sites of the target. The strongest compounds displace the weakest and are retained more effectively by the target. […] A reference sample was also prepared by diluting the sample to be analyzed 10-fold in a solution of water and a quarter of the volume of acetonitrile. […] Pre-conditioning step-Wells with a filtering membrane were pre-conditioned with a volume of 500 μL of an 85% solution of ammonium acetate and 15% of ethanol which was passed through the membrane by centrifuging at 14000 g for 60 seconds. 2. […] 3. Washing step-The mixture of the enzyme and the sample to be analyzed was deposited in a well that had been pre-conditioned in the pre-conditioning step, then centrifuged at 14000 g until most of the solvent had been eliminated. […] This procedure was repeated three times and eliminated all of the compounds that were not bound to the enzyme. 4. Separation step-The enzyme-ligand complexes retained in the filter were re-suspended in a volume of 10 μL of ultra-pure water, then mixed with a volume of 40 μL of acetonitrile in order to denature and precipitate the enzyme and, at the same time, to liberate the ligands. The mixture was centrifuged at 21000 g for 10 min in order to separate the precipitate from the supernatant. 5. Analysis step-Said supernatant was analyzed by liquid phase chromatography coupled to a mass spectrometer, also known by the acronym UPLC-MS. The reference sample was also analyzed in the same manner, using the same analytical conditions. The UPLC-MS analysis was carried out in accordance with the protocol described in Example 1. The chromatograms obtained are presented in FIGS. 3A and 3B and represent a signal intensity as a function of retention time in a column. […] Each peak is associated with one of the ligands present in the analyzed extract. The quantity associated with each ligand corresponds to the area of the peak. […] For each ligand, an affinity ratio, RACEi, was calculated as follows: [formula] where: NF is a normalization factor; […] the intensity of the analytical signal for the ligand CEi in the reference sample; ISeq,REF is the intensity of the analytical signal for the reference ligand REF (here, moracenin B) in the reference sample; […] the intensity of the analytical signal for the ligand CEi in the treated solution (the sample to be analyzed after steps 2 to 4 for binding and separation of the ligands) for the detached ligands; ISTB,REF is the intensity of the analytical signal for the reference ligand REF (here, moracenin B) in the treated solution (the sample to be analyzed after steps 2 to 4 for binding and separation of the ligands) for the detached ligands; RA, CEi is the relative affinity ratio (RA), representing an affinity of the ligand CEi for the target. The value of the ratio increases with affinity.

[1] = tested on: collagenase obtained from Clostridium Histolyticum; experiment: Target Binding affinity test for collagenase; conditions: ligands in non-stimulated M. alba root extract; moracenin B = reference ligand
Procedure: A root extract of Morus alba was prepared in accordance with the protocol described in Example 2.1. The Target Binding® method used was that of Example 2.3 which is described in patent application FR 1 670 545. The experimental protocol was as follows:
The target, a 6.25 mg/mL solution of collagenase obtained from Clostridium histolyticum, was prepared by dissolving lyophilized enzyme powder in 50 mM saline phosphate buffer with a pH of 7.5. The sample to be analyzed corresponded to the supernatant of the root extract obtained in accordance with Example 2.1. It could be centrifuged once again before use, at 21000 g for 15 min, in order to remove any traces of solid particles. A reference sample was also prepared by diluting the sample to be analyzed 10-fold in a solution of water and a quarter of the volume of acetonitrile.
1. Preconditioning step—Wells with a filtering membrane were preconditioned with a volume of 500 μL of a saline phosphate buffer which was passed through the membrane by centrifuging at 14000 g for 60 seconds.
2. Binding step—A volume of 92.5 μL of the solution obtained from the pretreatment step was mixed with 7.5 μL of the sample to be analyzed for 10 min in a plastic Eppendorf tube.
3. Washing step—The mixture of the enzyme and the sample to be analyzed was deposited in a well that had been preconditioned in the preconditioning step, then centrifuged at 14000 g until most of the solvent had been eliminated. The enzyme-ligand complexes remained on the surface of the filter membrane, then were re-suspended in a volume of 100 μL of the same saline phosphate buffer solution and centrifuged at 14000 g until the solvent had been eliminated. This procedure was repeated three times and eliminated all of the compounds that were not bound to the enzyme. 4. Separation step—The enzyme-ligand complexes retained in the filter were re-suspended in a volume of 10 μL of ultra-pure water then mixed with a volume of 30 μL of acetonitrile in order to denature and precipitate the enzyme and, at the same time, to liberate the ligands. The mixture was centrifuged at 21000 g for 10 min in order to separate the precipitate from the supernatant. 5. Analysis step—Said supernatant was analyzed by liquid phase chromatography coupled to a mass spectrometer. The reference sample was also analyzed in the same manner, using the same analytical conditions.
(§1) The UPLC-MS analysis was carried out in accordance with the protocol described in Example 1.

hyaluronidase = experiment: Target Binding affinity test for hyaluronidase; conditions: ligands in non-stimulated M. alba root extract; moracenin B = reference ligand
Procedure: A root extract of Morus Alba was prepared in accordance with the protocol described in Example 2.1. The Target Binding® method used was that of Example 2.3 which is described in patent application FR 1 670 545. The experimental protocol was as follows: The target, a 5 mg/mL solution of hyaluronidase, was prepared by dissolving powdered lyophilized enzyme in 50 mM sodium phosphate, with a pH of 7.0. The extract corresponded to the supernatant obtained in accordance with Example 2.1. It could optionally be centrifuged once again before use, at 21000 g for 15 min, in order to eliminate the solid particles before use. A reference sample was also prepared by diluting the sample 10-fold in a solution of water and a quarter of the volume of acetonitrile.
1. Preconditioning step—Wells with a filtering membrane were preconditioned with a volume of 500 μL of a solution of 50 mM sodium phosphate, at a pH of 7.0 which was passed through the membrane by centrifuging at 14000 g for 60 seconds.
2. Binding step—The hyaluronidase preparation (5 mg/mL) was mixed with 7.5 μL of the root extract for 5 min in a plastic Eppendorf tube.
3. Washing step—the mixture of the enzyme and the root extract was deposited in a well that had been preconditioned in the preconditioning step, then centrifuged at 14000 g until most of the solvent had been eliminated. The enzyme-ligand complexes remained on the surface of the membrane of the filter then were re-suspended in a volume of 100 μL of the same solution of 50 mM sodium phosphate at a pH of 7.0, and centrifuged at 14000 g until the solvent had been eliminated. This procedure was repeated three times and eliminated all of the compounds that were not bound to the enzyme. 4. Separation step—The enzyme-ligand complexes retained in the filter were re-suspended in a volume of 10 μL of ultra-pure water then mixed with a volume of 40 μL of acetonitrile in order to denature and precipitate the enzyme and at the same time to liberate the ligands. The mixture was centrifuged at 21000 g for 10 min in order to separate the precipitate from the supernatant. 5. Analysis step—Said supernatant was analyzed by liquid phase chromatography coupled to a mass spectrometer, also known by the acronym UPLC-MS. The reference sample was also analyzed in the same manner, using the same analytical conditions.
as §1

[2] = target: T1, hyaluronidase originating from bull testicles (type IV-S) (Bos taurus, UniProt Q2YDK3); experiment: Anti-hyaluronidase inhibiting activity, hyaluronic acid as substrate, precipitation with acidic BSA; assay type: biochemical
T1 construct: hyaluronidase originating from bull testicles (type IV-S); from tissue; host or cells: bull testicles
T1 sequence (Q2YDK3 36-553): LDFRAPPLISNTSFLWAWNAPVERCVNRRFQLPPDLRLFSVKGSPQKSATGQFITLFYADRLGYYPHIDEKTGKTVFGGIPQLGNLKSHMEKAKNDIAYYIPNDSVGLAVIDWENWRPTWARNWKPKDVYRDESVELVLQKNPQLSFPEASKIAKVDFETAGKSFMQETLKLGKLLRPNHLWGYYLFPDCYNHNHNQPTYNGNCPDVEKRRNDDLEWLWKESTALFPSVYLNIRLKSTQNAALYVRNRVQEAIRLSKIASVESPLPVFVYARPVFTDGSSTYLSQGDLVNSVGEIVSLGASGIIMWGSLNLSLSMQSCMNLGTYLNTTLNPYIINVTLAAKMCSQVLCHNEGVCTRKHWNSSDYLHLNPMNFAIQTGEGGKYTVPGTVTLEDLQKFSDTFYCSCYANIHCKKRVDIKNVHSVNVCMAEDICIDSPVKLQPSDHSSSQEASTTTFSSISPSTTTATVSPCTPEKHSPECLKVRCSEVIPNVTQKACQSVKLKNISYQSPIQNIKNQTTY
Procedure: A root extract of Morus Alba was prepared in accordance with the protocol described in Example 5. Hyaluronidase catalyzes the hydrolysis of hyaluronic acids into monosaccharides, disaccharides and short oligosaccharides. The measurement of the anti-hyaluronidase inhibiting activity was carried out using hyaluronic acid (HA) as a substrate in order to follow its reduction during the enzymatic reaction, the slope of the reduction of the concentration of HA during the reaction being proportional to the enzymatic activity.
The concentration of HA was measured in accordance with the following principle: in the presence of an acidic solution of bovine serum albumin, HA precipitates. Thus, in the case of the presence of HA, a precipitate is formed and in the case of complete hydrolysis of the HA, no precipitate is observed. Thus, the quantity of precipitation is proportion& to the HA content. […]
In order to follow the enzymatic degradation of the HA, a volume of 50 μl of RM was removed every 15 minutes, mixed with a volume of 250 μL of the solution of acidic BSA (acidic solution of bovine serum albumin: 24 mM sodium acetate, 79 mM acetic add and 0.1% (w/v) bovine serum albumin, pH 3.75) then incubated for 10 min at ambient temperature. The quantity of precipitate formed was then measured using a plate reader (diffusion of light at 600 nm). […]

Row | Compound | Relative affinity (RA) for tyrosinase (fungal tyrosinase; ligands in non-stimulated M. alba root extract, moracenin B = reference ligand) | affinity for tyrosinase compared with the other compounds of the extract (in words) (fungal tyrosinase; peak areas of FIG. 3B / relative affinities) | Relative affinity (RA) for collagenase [1] | Relative affinity (RA) for hyaluronidase (hyaluronidase) | inhibition at 10 µM [2] [%]
1 | CC(C)=CCc1c(O)ccc(C(=O)C2C(c3c(O)cc(-c4cc5ccc(O)c(CC=C(C)C)c5o4)cc3O)C=C(C)CC2c2ccc(O)cc2O)c1O (centres unmarked) [Mulberrofuran T, mulberrofuran T] | 36.2 | greater affinity | 1.1 | 2.7 | 
2 | O=c1c(O)c(-c2ccc(O)c(O)c2)oc2cc(O)cc(O)c12 [quercetin, reference compound] |  |  |  |  | 15.6
